Experimental data from patent US10329320B2, “Neuroactive steroids, compositions, and uses thereof” (Sage Therapeutics, Inc., priority 2015, dated 2019).

target: GABAA receptor ([35S]-TBPS binding, rat brain cortical membranes); test: Steroid inhibition of [35S]-TBPS binding (radioligand displacement); settings: 3 nM [35S]-TBPS, in the presence of 5 μM GABA
Description: TBPS binding assays using rat brain cortical membranes in the presence of 5 μM GABA has been described (Gee et al, J. Pharmacol. Exp. Ther. 1987, 241, 346-353; Hawkinson et al, Mol. Pharmacol. 1994, 46, 977-985; Lewin, A. H et al., Mol. Pharmacol. 1989, 35, 189-194).
Briefly, cortices are rapidly removed following decapitation of carbon dioxide-anesthetized Sprague-Dawley rats (200-250 g). The cortices are homogenized in 10 volumes of ice-cold 0.32 M sucrose using a glass/teflon homogenizer and centrifuged at 1500×g for 10 min at 4° C. The resultant supernatants are centrifuged at 10,000×g for 20 min at 4° C. to obtain the P2 pellets. The P2 pellets are resuspended in 200 mM NaCl/50 mM Na—K phosphate pH 7.4 buffer and centrifuged at 10,000×g for 10 min at 4° C. This washing procedure is repeated twice and the pellets are resuspended in 10 volumes of buffer. Aliquots (100 μL) of the membrane suspensions are incubated with 3 nM [^35S]-TBPS and 5 μL aliquots of test drug dissolved in dimethyl sulfoxide (DMSO) (final 0.5%) in the presence of 5 μM GABA. The incubation is brought to a final volume of 1.0 mL with buffer. Nonspecific binding is determined in the presence of 2 μM unlabeled TBPS and ranged from 15 to 25%. Following a 90 min incubation at room temp, the assays are terminated by filtration through glass fiber filters (Schleicher and Schuell No. 32) using a cell harvester (Brandel) and rinsed three times with ice-cold buffer. Filter bound radioactivity is measured by liquid scintillation spectrometry. Non-linear curve fitting of the overall data for each drug averaged for each concentration is done using Prism (GraphPad). […] The concentration of test compound producing 50% inhibition (IC50) of specific binding and the maximal extent of inhibition (Imax) are determined for the individual experiments with the same model used for the overall data and then the means ±SEM.s of the individual experiments are calculated.
Various compounds are or can be screened to determine their potential as modulators of [^35S]-TBPS binding in vitro. These assays are or can be performed in accordance with the above discussed procedures.

Compared with `COC[C@]12CC[C@@](C)(O)C[C@@H]1CC[C@H]1[C@@H]3CC[C@H](C(=O)Cn4ncc(C(=O)O)n4)[C@@]3(C)CC[C@@H]12` [Compound 81], `COC[C@]12CC[C@@](C)(O)C[C@@H]1CC[C@H]1[C@@H]3CC[C@H](C(=O)Cn4ncc(C(N)=O)n4)[C@@]3(C)CC[C@@H]12` [Compound 83] is lower in IC50: greater than 500 nM for the first, 100 to 500 nM for the second.

First: COC[C@]12CC[C@@](C)(O)C[C@@H]1CC[C@H]1[C@@H]3CC[C@H](C(=O)Cn4ncc5ccc(OC)cc54)[C@@]3(C)CC[C@@H]12 [Compound 49]
Second: COC[C@]12CC[C@@](C)(O)C[C@H]1CC[C@H]1[C@@H]3CC[C@H](C(=O)Cn4ncc5ccc(F)cc54)[C@@]3(C)CC[C@@H]12 [Compound 15]
The IC50 of the first is higher: 50 to 100 nM for the first, less than 10 nM for the second. The second is the more potent here.

First: COC[C@]12CC[C@@](C)(O)C[C@H]1CC[C@H]1[C@@H]3CC[C@H](C(=O)Cn4cc([S+](C)[O-])cn4)[C@@]3(C)CC[C@@H]12 (stereo partly shown) [Compound 22]
Second: COC[C@]12CC[C@@](C)(O)C[C@H]1CC[C@H]1[C@@H]3CC[C@H](C(=O)Cn4cc(SC)cn4)[C@@]3(C)CC[C@@H]12 [Compound 21]
The IC50 of the first is higher: 100 to 500 nM for the first, less than 10 nM for the second. The second is the more potent here.

`COC[C@]12CC[C@@](C)(O)C[C@H]1CC[C@H]1[C@@H]3CC[C@H](C(=O)Cn4nc5ccc(Cl)c(F)c5n4)[C@@]3(C)CC[C@@H]12` [Compound 24] and `COC[C@]12CC[C@@](C)(O)C[C@@H]1CC[C@H]1[C@@H]3CC[C@H](C(=O)Cn4nnc5c(F)c(Cl)ccc54)[C@@]3(C)CC[C@@H]12` [Compound 51] cannot be ordered by IC50: less than 10 nM for the first, less than 10 nM for the second.

First: COC[C@]12CC[C@@](C)(O)C[C@H]1CC[C@H]1[C@@H]3CC[C@H](C(=O)Cn4cc5cc(F)ccc5n4)[C@@]3(C)CC[C@@H]12 [Compound 17]
Second: COC[C@]12CC[C@@](C)(O)C[C@H]1CC[C@H]1[C@@H]3CC[C@H](C(=O)Cn4cc5ccc(F)cc5n4)[C@@]3(C)CC[C@@H]12 [Compound 14]
The IC50 of the first is higher: 10 to 50 nM for the first, less than 10 nM for the second.

`COC[C@]12CC[C@@](C)(O)C[C@H]1CC[C@H]1[C@@H]3CC[C@H](C(=O)Cn4nnc5cccc(OC)c54)[C@@]3(C)CC[C@@H]12` [Compound 29] and `COC[C@]12CC[C@@](C)(O)C[C@H]1CC[C@H]1[C@@H]3CC[C@H](C(=O)Cn4nnc5c(OC)cccc54)[C@@]3(C)CC[C@@H]12` [Compound 28] cannot be ordered by IC50: less than 10 nM for the first, less than 10 nM for the second.

`CC(C)OC[C@]12CC[C@@](C)(O)C[C@H]1CC[C@H]1[C@@H]3CC[C@H](C(=O)Cn4ncnn4)[C@@]3(C)CC[C@@H]12` [Compound 72] and `CC(C)OC[C@]12CC[C@@](C)(O)C[C@H]1CC[C@H]1[C@@H]3CC[C@H](C(=O)Cn4nc5ccc(F)c(F)c5n4)[C@@]3(C)CC[C@@H]12` [Compound 70] cannot be ordered by IC50: less than 10 nM for the first, less than 10 nM for the second.

`COC[C@]12CC[C@@](C)(O)C[C@H]1CC[C@H]1[C@@H]3CC[C@H](C(=O)Cn4nnc5ccc(OC)cc54)[C@@]3(C)CC[C@@H]12` [Compound 25] and `COC[C@]12CC[C@@](C)(O)C[C@H]1CC[C@H]1[C@@H]3CC[C@H](C(=O)Cn4nnc5cc(OC)ccc54)[C@@]3(C)CC[C@@H]12` [Compound 26] cannot be ordered by IC50: less than 10 nM for the first, less than 10 nM for the second.

First: COC[C@]12CC[C@@](C)(O)C[C@@H]1CC[C@H]1[C@@H]3CC[C@H](C(=O)Cn4cc(C(=O)O)nn4)[C@@]3(C)CC[C@@H]12 [Compound 82]
Second: COC[C@]12CC[C@@](C)(O)C[C@@H]1CC[C@H]1[C@@H]3CC[C@H](C(=O)Cn4cc(OC)cn4)[C@@]3(C)CC[C@@H]12 [Compound 37]
The IC50 of the first is higher: greater than 500 nM for the first, 100 to 500 nM for the second.

First: COC[C@]12CC[C@@](C)(O)C[C@@H]1CC[C@H]1[C@@H]3CC[C@H](C(=O)Cn4cc5ccc(OC)cc5n4)[C@@]3(C)CC[C@@H]12 [Compound 48]
Second: COC[C@]12CC[C@@](C)(O)C[C@H]1CC[C@H]1[C@@H]3CC[C@H](C(=O)Cn4cc5ccccc5n4)[C@@]3(C)CC[C@@H]12 [Compound 19]
The IC50 of the first is higher: 50 to 100 nM for the first, less than 10 nM for the second.

Compared with `COC[C@]12CC[C@@](C)(O)C[C@H]1CC[C@H]1[C@@H]3CC[C@H](C(=O)Cn4nc5ccc(OC)cc5n4)[C@@]3(C)CC[C@@H]12` [Compound 27], `COC[C@]12CC[C@@](C)(O)C[C@@H]1CC[C@H]1[C@@H]3CC[C@H](C(=O)Cn4cc5ccc(OC)cc5n4)[C@@]3(C)CC[C@@H]12` [Compound 42] is higher in IC50: less than 10 nM for the first, 10 to 50 nM for the second. The first is the more potent here.

`CC(C)OC[C@]12CC[C@@](C)(O)C[C@H]1CC[C@H]1[C@@H]3CC[C@H](C(=O)Cn4nnc5ccc(F)c(F)c54)[C@@]3(C)CC[C@@H]12` [Compound 69] and `COC[C@]12CC[C@@](C)(O)C[C@@H]1CC[C@H]1[C@@H]3CC[C@H](C(=O)Cn4nnc5cc(Cl)cnc54)[C@@]3(C)CC[C@@H]12` [Compound 12] cannot be ordered by IC50: less than 10 nM for the first, less than 10 nM for the second.

`COC[C@]12CC[C@@](C)(O)C[C@@H]1CC[C@H]1[C@@H]3CC[C@H](C(=O)Cn4cc5c(OC)cccc5n4)[C@@]3(C)CC[C@@H]12` [Compound 40] and `COC[C@]12CC[C@@](C)(O)C[C@@H]1CC[C@H]1[C@@H]3CC[C@H](C(=O)Cn4ncc5c(OC)cccc54)[C@@]3(C)CC[C@@H]12` [Compound 45] fall in the same range of IC50: 50 to 100 nM for the first, 50 to 100 nM for the second.

`COC[C@]12CC[C@@](C)(O)C[C@@H]1CC[C@H]1[C@@H]3CC[C@H](C(=O)Cn4cc5cc(F)ncc5n4)[C@@]3(C)CC[C@@H]12` [Compound 75] and `COC[C@]12CC[C@@](C)(O)C[C@@H]1CC[C@H]1[C@@H]3CC[C@H](C(=O)Cn4cnc(F)c4)[C@@]3(C)CC[C@@H]12` [Compound 59] fall in the same range of IC50: 100 to 500 nM for the first, 100 to 500 nM for the second.

First: COC[C@]12CC[C@@](C)(O)C[C@H]1CC[C@H]1[C@@H]3CC[C@H](C(=O)Cn4cc([S+](C)[O-])cn4)[C@@]3(C)CC[C@@H]12 (stereo partly shown) [Compound 35]
Second: CCOc1cnn(CC(=O)[C@H]2CC[C@H]3[C@@H]4CC[C@H]5C[C@](C)(O)CC[C@]5(COC)[C@H]4CC[C@]23C)c1 [Compound 61]
The IC50 of the first is higher: greater than 500 nM for the first, 100 to 500 nM for the second. The second is the more potent here.

For `COC[C@]12CC[C@@](C)(O)C[C@@H]1CC[C@H]1[C@@H]3CC[C@H](C(=O)Cn4ccnc4C#N)[C@@]3(C)CC[C@@H]12` [Compound 36], the IC50 was 100 to 500 nM.
